Experimental data taken from paper PMC11127902, “Rescuing tri-heteromeric NMDA receptor function: the potential of pregnenolone-sulfate in loss-of-function GRIN2B variants” (Cellular and Molecular Life Sciences: CMLS, 2024).
Where two headings read alike, the source gives them in different places.

Assays:
[1] = system: Mixed tri-heteromeric GluN2A-wt/ GluN2B-A819T; set-up: method as in PMID 35110392; conditions: glutamate; ref 10; cited from earlier work
[2] = system: Pure variant di-heteromeric GluN2A-L649V; set-up: method as in PMID 35110392; conditions: glutamate; ref 10; cited from earlier work
[3] = system: Mixed tri-heteromeric GluN2A-H485A/ GluN2B-wt; set-up: method as in PMID 24607230; conditions: glutamate; ref 8; cited from earlier work
[4] = system: Mixed di-heteromeric GluN2A-wt/GluN2A-P552R; set-up: method as in PMID 28095420; conditions: glutamate; ref 32; cited from earlier work
[5] = system: Mixed di-heteromeric GluN2A-wt/GluN2A-T690A; set-up: method as in PMID 24607230; conditions: glutamate; ref 8; cited from earlier work
[6] = system: Pure variant di-heteromeric GluN2A-E551K; set-up: method as in PMID 35110392; conditions: glutamate; ref 10; cited from earlier work
[7] = system: Mixed tri-heteromeric GluN2A-S644G/ GluN2B-wt; set-up: method as in PMID 35110392; conditions: glutamate; ref 10; cited from earlier work
[8] = system: Mixed di-heteromeric GluN2A-wt/GluN2A-L812M; set-up: method as in PMID 24504326; conditions: glutamate; ref 39; cited from earlier work
[9] = system: Pure variant di-heteromeric GluN2A-D731N; set-up: method as in PMID 28182669; conditions: glutamate; ref 33; cited from earlier work
[10] = system: Mixed tri-heteromeric GluN2A-P552R/ GluN2B-wt; set-up: method as in PMID 35110392; conditions: glutamate; ref 10; cited from earlier work
[11] = target: Mixed di-heteromeric GluN2B-wt/GluN2B-G689C (Rattus norvegicus, UniProt P35439+Q00960, G689C); test: TEVC in Xenopus oocytes; conditions: glutamate dose-response
Protocol: (§2) Two electrode voltage clamp (TEVC) recordings were carried out 24–72 h after mRNA injections, as previously described [17, 37]. We use a commercial amplifier (Warner Instruments, USA) and Digitizer (Digidata-1550B; Molecular Devices, USA), controlled by the pClamp10 software (Molecular Devices, USA). Electrode were made by pulling glass capillaries (Narishige, Japan) filled with 3 M KCl, into which we inserted chlorinated silver wires. […] For hERG channel recordings, oocytes were clamped at (− 60) mV for 1 s, followed by a voltage jump to 20 mV for 4 s, and an additional voltage jump to (− 50) mV for 6 s and return to baseline voltage (see Supplementary. 6f), as previously described [53].
(§3) When assessing potentiation by PS, all other solutions also included equal amounts of the DMSO carrier (0.2%).
(§4) Electrophysiology data were analyzed by Clampfit 11.2 (Molecular Devices, USA), plotted using GraphPad 8 or SigmaPlot 11(Systat software, Inc.). […] In all TEVC recordings in oocytes, the responses were normalized to current amplitude obtained from that individual cell. […] All data are shown as mean ± SEM. In all experiments N indicates the number of independent experiments, whereas n indicates the number of cells recorded. In each experiment, data underwent normality test prior to statistical assessment. Normally distributed data were assessed for significance by using paired t-test or one-way ANOVA for multiple group comparison and post hoc Tukey test or Dunnett's test. Similarly, in the case of non-normally distributed data significance was assessed by Mann Whitney test or Kruskal–Wallis ANOVA on ranks test followed by Dunn’s multiple comparison post hoc; n.s., non-significant; *p < 0.05; **p < 0.01; ***p < 0.001. […] Leak expression was evaluated by normalizing the maximal current (Imax) of each ER-retained NMDAR composition to Imax of control group (which was recorded in all experiments). Estimation of activation time constant (τ) for potentiated currents by PS, was performed by fitting PS- potentiated currents with a standard single-exponential function, from which we extracted the time constant (τ).

[12] = system: Mixed di-heteromeric GluN2B-wt/GluN2B-G689C; test: TEVC in Xenopus oocytes; conditions: compared to purely di-heteromeric variant channels
Protocol: as §2, §3, §4

[13] = system: wt di-heteromeric GluN2A NMDAR; conditions: glutamate, cited from earlier work
[14] = system: Pure variant di-heteromeric GluN2A-T690A; set-up: method as in PMID 24607230; conditions: glutamate; ref 8; cited from earlier work
[15] = system: Pure variant di-heteromeric GluN2B-M818T; set-up: method as in PMID 28377535; conditions: glutamate; ref 25; cited from earlier work
[16] = system: Mixed tri-heteromeric GluN2A-wt/ GluN2B-A639V; set-up: method as in PMID 35110392; conditions: glutamate; ref 10; cited from earlier work
[17] = system: Mixed di-heteromeric GluN2A-wt/GluN2A-S644G; set-up: method as in PMID 32577763; conditions: glutamate; ref 19; cited from earlier work
[18] = target: T1, Purely di-heteromeric GluN2B-wt (GluN1-1a-wt + GluN2B-wt-C1/C2) (Rattus norvegicus, UniProt P35439+Q00959+Q00960, A876H/F846L/G856D/H848F/K857R/M851T/M860L/Q845K/V861L); test: TEVC in Xenopus oocytes; format: cell-based; conditions: glutamate dose-response
T1 construct: expressed in transfected cells; host or cells: Xenopus laevis oocytes, mRNA injection
T1 sequence (Q00960+Q00959 fused with the stated changes, other chains not shown): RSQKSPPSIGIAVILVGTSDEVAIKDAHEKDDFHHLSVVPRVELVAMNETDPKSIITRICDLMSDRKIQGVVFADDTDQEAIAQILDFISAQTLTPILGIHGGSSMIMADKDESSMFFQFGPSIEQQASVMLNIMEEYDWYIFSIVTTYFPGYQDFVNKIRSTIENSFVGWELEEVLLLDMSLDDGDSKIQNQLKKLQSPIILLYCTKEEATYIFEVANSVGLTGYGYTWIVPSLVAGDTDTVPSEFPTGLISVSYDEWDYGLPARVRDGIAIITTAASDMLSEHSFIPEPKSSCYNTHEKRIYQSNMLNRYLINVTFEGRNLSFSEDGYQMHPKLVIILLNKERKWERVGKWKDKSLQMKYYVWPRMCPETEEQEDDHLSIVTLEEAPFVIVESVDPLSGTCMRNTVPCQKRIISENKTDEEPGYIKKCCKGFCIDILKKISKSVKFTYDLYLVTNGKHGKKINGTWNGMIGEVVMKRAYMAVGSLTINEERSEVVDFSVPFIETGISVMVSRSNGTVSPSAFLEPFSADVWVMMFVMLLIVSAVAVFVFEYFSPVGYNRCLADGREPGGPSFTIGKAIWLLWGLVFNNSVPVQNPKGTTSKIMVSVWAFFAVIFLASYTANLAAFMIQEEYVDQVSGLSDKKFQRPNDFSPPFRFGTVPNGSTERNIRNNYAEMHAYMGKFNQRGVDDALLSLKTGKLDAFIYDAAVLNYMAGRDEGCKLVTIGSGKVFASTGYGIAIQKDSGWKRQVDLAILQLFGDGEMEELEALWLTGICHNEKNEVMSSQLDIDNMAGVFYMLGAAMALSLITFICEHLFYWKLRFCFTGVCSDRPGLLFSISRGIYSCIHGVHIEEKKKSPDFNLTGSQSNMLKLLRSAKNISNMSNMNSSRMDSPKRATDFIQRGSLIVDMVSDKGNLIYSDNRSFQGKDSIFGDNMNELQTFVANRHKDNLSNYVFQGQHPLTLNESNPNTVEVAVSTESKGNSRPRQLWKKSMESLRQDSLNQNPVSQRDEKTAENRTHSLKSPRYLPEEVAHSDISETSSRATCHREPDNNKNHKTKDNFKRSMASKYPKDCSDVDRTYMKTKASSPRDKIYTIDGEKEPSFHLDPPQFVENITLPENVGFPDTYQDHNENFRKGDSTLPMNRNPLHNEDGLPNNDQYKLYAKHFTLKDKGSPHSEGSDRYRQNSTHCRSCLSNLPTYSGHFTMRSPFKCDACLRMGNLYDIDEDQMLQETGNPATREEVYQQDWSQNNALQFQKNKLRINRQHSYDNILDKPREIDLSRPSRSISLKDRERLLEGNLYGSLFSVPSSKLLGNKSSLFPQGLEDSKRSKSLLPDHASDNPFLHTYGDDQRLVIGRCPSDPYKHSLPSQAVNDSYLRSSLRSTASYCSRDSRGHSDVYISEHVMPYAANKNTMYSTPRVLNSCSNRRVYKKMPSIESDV
Excerpt: (§1) Aliquots were thawed before each experiment.

[19] = target: T2, Mixed di-heteromeric GluN2B-wt/GluN2B-G689S (Rattus norvegicus, UniProt P35439+Q00960, G689S); test: TEVC in Xenopus oocytes; format: cell-based
T2 construct: expressed in transfected cells; host or cells: Xenopus laevis oocytes, mRNA injection
Excerpt: as §1

[20] = target: T3, Purely di-heteromeric GluN2B-G689C (C1/C2) (Rattus norvegicus, UniProt P35439+Q00959+Q00960, A876H/F846L/G689C/G856D/H848F/K857R/M851T/M860L/Q845K/V861L); test: TEVC in Xenopus oocytes; format: cell-based
T3 construct: expressed in transfected cells; host or cells: Xenopus laevis oocytes, mRNA injection
T3 sequence (Q00960+Q00959 fused with the stated changes, other chains not shown): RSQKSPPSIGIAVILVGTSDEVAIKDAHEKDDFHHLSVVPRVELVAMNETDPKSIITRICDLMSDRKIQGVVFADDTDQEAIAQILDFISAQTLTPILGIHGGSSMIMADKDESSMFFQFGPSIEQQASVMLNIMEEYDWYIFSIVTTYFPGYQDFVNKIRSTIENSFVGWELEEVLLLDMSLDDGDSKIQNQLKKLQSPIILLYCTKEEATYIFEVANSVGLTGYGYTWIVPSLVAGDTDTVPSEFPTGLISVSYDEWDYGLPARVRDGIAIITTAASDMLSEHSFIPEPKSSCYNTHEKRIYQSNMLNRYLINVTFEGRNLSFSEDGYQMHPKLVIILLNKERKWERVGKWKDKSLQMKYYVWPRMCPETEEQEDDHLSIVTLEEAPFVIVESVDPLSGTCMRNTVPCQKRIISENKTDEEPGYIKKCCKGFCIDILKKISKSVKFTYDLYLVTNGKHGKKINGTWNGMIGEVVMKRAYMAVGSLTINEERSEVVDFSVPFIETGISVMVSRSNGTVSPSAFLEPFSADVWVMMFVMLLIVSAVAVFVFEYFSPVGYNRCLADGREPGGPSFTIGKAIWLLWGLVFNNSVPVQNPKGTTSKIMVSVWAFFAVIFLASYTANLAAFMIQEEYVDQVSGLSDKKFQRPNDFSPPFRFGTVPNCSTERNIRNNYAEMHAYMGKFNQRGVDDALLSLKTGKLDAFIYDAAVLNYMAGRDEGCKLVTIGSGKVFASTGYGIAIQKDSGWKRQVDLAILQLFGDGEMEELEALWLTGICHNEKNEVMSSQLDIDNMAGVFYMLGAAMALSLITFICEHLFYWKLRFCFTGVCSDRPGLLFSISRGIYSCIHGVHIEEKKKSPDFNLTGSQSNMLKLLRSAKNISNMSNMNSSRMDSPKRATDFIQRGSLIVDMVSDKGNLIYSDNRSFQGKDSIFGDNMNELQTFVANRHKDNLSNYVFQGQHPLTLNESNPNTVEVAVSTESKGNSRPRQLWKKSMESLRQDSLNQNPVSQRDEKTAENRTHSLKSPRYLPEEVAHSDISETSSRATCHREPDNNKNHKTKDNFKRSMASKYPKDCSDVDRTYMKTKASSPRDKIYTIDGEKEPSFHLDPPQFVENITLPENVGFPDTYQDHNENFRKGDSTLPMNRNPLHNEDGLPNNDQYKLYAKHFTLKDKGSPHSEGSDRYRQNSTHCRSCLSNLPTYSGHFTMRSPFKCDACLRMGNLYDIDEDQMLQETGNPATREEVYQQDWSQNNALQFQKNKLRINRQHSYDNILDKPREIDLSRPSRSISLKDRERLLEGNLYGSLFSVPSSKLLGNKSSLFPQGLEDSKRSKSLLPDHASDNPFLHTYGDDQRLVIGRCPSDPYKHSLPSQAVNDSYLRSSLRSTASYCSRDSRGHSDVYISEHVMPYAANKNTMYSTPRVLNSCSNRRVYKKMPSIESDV
Excerpt: as §1

[21] = target: T4, Purely di-heteromeric GluN2B-G689S (C1/C2) (Rattus norvegicus, UniProt P35439+Q00959+Q00960, A876H/F846L/G689S/G856D/H848F/K857R/M851T/M860L/Q845K/V861L); test: TEVC in Xenopus oocytes; format: cell-based
T4 construct: expressed in transfected cells; host or cells: Xenopus laevis oocytes, mRNA injection
T4 sequence (Q00960+Q00959 fused with the stated changes, other chains not shown): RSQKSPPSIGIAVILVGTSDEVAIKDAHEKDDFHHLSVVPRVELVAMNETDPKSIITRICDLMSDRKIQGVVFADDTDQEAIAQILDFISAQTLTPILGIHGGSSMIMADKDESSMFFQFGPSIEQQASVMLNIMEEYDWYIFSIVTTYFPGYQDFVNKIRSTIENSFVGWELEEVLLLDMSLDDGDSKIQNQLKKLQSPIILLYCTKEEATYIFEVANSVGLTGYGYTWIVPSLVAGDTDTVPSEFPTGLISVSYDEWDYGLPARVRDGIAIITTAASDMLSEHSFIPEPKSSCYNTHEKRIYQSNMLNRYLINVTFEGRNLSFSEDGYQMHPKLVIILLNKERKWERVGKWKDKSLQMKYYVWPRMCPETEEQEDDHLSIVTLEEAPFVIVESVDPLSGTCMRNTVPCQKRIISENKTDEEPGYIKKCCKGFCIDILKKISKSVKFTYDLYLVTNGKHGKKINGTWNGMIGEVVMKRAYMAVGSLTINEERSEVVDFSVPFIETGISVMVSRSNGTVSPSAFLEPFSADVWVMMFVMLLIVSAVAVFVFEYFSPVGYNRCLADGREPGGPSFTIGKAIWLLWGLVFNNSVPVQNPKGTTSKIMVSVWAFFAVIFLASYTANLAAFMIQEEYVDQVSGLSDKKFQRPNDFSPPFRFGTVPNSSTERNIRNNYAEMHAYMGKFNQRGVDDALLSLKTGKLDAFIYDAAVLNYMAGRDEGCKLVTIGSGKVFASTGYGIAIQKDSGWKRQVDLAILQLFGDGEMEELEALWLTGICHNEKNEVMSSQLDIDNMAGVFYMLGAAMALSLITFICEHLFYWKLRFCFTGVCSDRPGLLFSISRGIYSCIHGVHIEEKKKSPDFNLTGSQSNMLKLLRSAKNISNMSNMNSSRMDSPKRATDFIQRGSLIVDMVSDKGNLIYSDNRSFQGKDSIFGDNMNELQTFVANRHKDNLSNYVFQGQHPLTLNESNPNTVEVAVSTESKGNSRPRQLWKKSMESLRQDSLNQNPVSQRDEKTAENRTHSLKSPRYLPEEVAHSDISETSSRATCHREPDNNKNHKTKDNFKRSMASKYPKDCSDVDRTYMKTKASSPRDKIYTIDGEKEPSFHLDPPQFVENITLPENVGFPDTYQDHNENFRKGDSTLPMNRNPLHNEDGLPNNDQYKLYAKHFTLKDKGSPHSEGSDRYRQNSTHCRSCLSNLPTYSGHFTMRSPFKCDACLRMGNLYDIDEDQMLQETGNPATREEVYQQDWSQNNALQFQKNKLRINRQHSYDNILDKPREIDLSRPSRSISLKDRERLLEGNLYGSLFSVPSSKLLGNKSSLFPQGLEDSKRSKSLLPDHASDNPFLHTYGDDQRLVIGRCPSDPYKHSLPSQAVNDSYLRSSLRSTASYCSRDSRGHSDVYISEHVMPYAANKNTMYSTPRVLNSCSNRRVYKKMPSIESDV
Excerpt: as §1

[22] = system: Pure variant di-heteromeric GluN2B-G543R; set-up: method as in PMID 35110392; conditions: glutamate; ref 10; cited from earlier work
[23] = system: Mixed di-heteromeric GluN2A-wt/GluN2A-H485A; set-up: method as in PMID 24607230; conditions: glutamate; ref 8; cited from earlier work
[24] = system: Pure variant di-heteromeric GluN2A-S644G; set-up: method as in PMID 32577763; conditions: glutamate; di-heteromer section; cited from earlier work
[25] = system: Mixed tri-heteromeric GluN2A-wt/ GluN2B-G543R; set-up: method as in PMID 35110392; conditions: glutamate; ref 10; cited from earlier work
[26] = system: Mixed tri-heteromeric GluN2A-wt/ GluN2B-H486A; set-up: method as in PMID 24607230; conditions: glutamate; ref 8; cited from earlier work
[27] = system: Mixed di-heteromeric GluN2B-wt/GluN2B-C461F; set-up: method as in PMID 27839871; conditions: glutamate; ref 21; cited from earlier work
[28] = system: wt di-heteromeric GluN2B NMDAR; conditions: glutamate, cited from earlier work
[29] = compared to GluN2B-wt-C1/C2 receptors

In the case of `N[C@@H](CCC(=O)O)C(=O)O` [Glutamate, glutamate], the EC50 [1] is given as 0.71 µM, the EC50 [2] is given as 0.05 µM and the EC50 [3] is given as 210 µM. For the same compound, the EC50 [4] was 1.2 µM, the EC50 [5] was 660 µM and the EC50 [6] was 0.47 µM. The EC50 [7] was 0.49 µM, the EC50 [8] was 1 µM and the EC50 [9] was 30000 µM. The EC50 [10] was 0.56 µM, the “Hill coefficient (nH)” value [11] was 0.75 ± 0.08 n.s (N = 6, n = 54) and the “higher (improved) glutamate potency” value [12] was “~ four-fold”. For the same compound, the EC50 ([13]; ref 8) was 4.2 µM, the EC50 ([13]; ref 19) was 4.5 µM and the EC50 ([13]; ref 32) was 3.9 µM. The EC50 ([13]; ref 33) was 5.7 µM, the EC50 ([13]; ref 39) was 4 µM and the EC50 ([13]; ref 91) was 3.6 µM. The EC50 [14] was 2700 µM, the EC50 [15] was 0.37 µM and the EC50 [16] was 0.58 µM. The EC50 [17] was 0.7 µM, the “Hill coefficient (nH)” value [18] was 0.86 ± 0.29 (N = 6, n = 38) and the “higher (improved) glutamate potency” value ([19]; compared to purely di-heteromeric variant channels) was “~ four-fold”. The “Hill coefficient (nH)” value ([19]; glutamate dose-response) was 1.02 ± 0.10 n.s (N = 1, n = 13), the “increase in the EC50 value” [20, 29] was ~ 2000 fold and the “Hill coefficient (nH)” value ([20]; glutamate dose-response) was 2.04 ± 0.28 (N = 2, n = 13). The “increase in the EC50 value” [21, 29] was over 3000 fold, the “Hill coefficient (nH)” value ([21]; glutamate dose-response) was 2.45 ± 0.41 (N = 2, n = 9) and the EC50 [22] was 0.22 µM. For the same compound, the EC50 [23] was 220 µM, the EC50 [24] was 0.05 µM and the EC50 [25] was 1.9 µM. For the same compound, the EC50 [26] was 140 µM, the EC50 [27] was 61 µM and the EC50 ([28]; control of GluN2B-E413G) was 0.9 µM. The EC50 ([28]; ref 8) was 1.6 µM.
